Measurements taken from patent publication EP2308883A1, “New derivatives of thieno[2,3-b]pyridine and 5,6,7,8 tetrahydrothieno[2,3 b]quinoline in particular useful in the treatment of malaria” (priority 2009, dated 2011).

Columns and labels:
[1] = biological target: Mammalian GSK-3 (GSK-3α/β); assay: Kinase assay with native porcine GSK3 purified from porcine brain, GS-1 peptide and [γ-33P] ATP; format: biochemical; details: for anti-mammalian GSK-3 IC50 values: result in words; for IC50: -(10) taken as no inhibition at 10, read-out: IC50 Mammalian GSK-3
Method: Porcine GSK3 (GSK-3α/β) was purified from porcine brain by affinity chromatography on immobilized axin according to the protocol described in Primot et al (Protein Expression and Purification 20, 394-404, 2000).
(§1) Both porcine GSK3 and PfGSK3 were assayed with 40 µM GS-1 peptide, a specific GSK-3 substrate, ([…]pEDEEE, synthesized by the Peptide Synthesis Unit, Institute of Biomolecular Sciences, University of Southampton, U.K.), in buffer A (25 mM Tris-HCl pH 7.5, 10 mM MgC12, 1 mM EGTA, 1 mM DTT, 50 µg heparin/ml, 0.5 mg BSA/ml) in the presence of 15 µM [γ-^33P] ATP (3000 Ci/mmol; 1 mCi/ml) in a final volume of 30 µl. After 30 min. incubation at 30°C, 25 µl aliquots of supernatant were spotted onto 2.5 x 3 cm pieces of Whatman P81 phosphocellulose paper, and, 20 sec. later, the filters were washed five times (for at least 5 min. each time) in 1 % phosphoric acid. The wet filters were counted in the presence of 1 ml ACS (Amersham) scintillation fluid. The kinase activity was expressed in pmoles phosphate incorporated in GS-1 or in percentage of the maximal activity.

PfGSK-3 = biological target: T1, PfGSK-3 (Plasmodium falciparum, UniProt O77344); assay: Kinase assay with recombinant (His)6-tagged PfGSK3, GS-1 peptide and [γ-33P] ATP; format: biochemical; details: for anti-PfGSK-3 IC50 values: result in words; for IC50: unit only in the introducing sentence b99, not in the table, read-out: IC50 PfGSK-3
T1 construct: His6; made in house; host or cells: Escherichia coli TOP 10
T1 sequence (O77344 1-440): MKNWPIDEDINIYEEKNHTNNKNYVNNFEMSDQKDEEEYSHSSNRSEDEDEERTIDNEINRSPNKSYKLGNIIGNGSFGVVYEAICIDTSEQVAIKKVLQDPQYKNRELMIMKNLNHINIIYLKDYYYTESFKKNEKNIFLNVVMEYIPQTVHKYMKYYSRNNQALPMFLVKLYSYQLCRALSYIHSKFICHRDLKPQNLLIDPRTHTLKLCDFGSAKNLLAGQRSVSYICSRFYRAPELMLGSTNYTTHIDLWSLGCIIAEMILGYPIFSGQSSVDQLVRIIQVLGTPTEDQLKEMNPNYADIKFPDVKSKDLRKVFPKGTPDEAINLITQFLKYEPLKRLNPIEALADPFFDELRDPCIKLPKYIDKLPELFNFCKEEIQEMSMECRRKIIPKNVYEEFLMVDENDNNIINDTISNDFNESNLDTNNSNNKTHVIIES
Method: Escherichia coli strain (TOP 10) containing a plasmid encoding PfGSK3 with six histidines (pBAD-Thio-TOPO, Invitrogen) were cultured into 500 ml of LB medium containing 100 µg/ml ampicillin, at 37°C, under shaking (250 rpm) until OD600 of 0.5 was reached. Expression was induced with 0.5 ml of 20% arabinose (0.02% final concentration). The culture was grown at 37°C with shaking for 4 hours. Cells were harvested by centrifugation at 9000 rpm for 10 min. The bacterial pellet was stored frozen at -80°C until further processing. For proteins extraction, pellet was resuspended in 10 ml of lysis buffer (50 mM NaH2PO4 pH 8.0, 300 mM NaCl, 10 mM imidazole) with the addition of protease inhibitors (complete EDTA-free, Roche) and lysozyme ([…] final). Cells were disrupted by sonication and the cell lysate was centrifuged at 24000 rpm for 30 min at 4°C. The recombinant PfGSK3 protein was purified by Immobilized Metal Affinity Chromatography according to a batch procedure on 1 ml of Nickel affinity resin (Ni-NTA agarose beads, Qiagen). Beads were washed four times with 10 ml of wash buffer (50 mM NaH2PO4 pH 8.0, 300 mM NaCl, 30 mM imidazole). Protein was eluted with one volume of elution buffer (50 mM NaH2PO4 pH 8.0, 300 mM NaCl, 250 mM imidazole, 10% glycerol).
as §1

Row | SMILES | anti-mammalian GSK-3 IC50 values [1] | anti-PfGSK-3 IC50 values (PfGSK-3) | IC50 [1] | IC50 (PfGSK-3)
1 | COc1ccccc1-c1c(C#N)c(N)nc2sc(C(=O)c3cccc(Cl)c3)c(N)c12 [Compound 7, 3,6-diamino-2-(3-chlorobenzoyl)-4-(2-methoxyphenyl)thieno[2,3-b]pyridine-5-carbonitrile] | do not demonstrate good | particularly good | – | –
2 | N#Cc1sc2nc(N)c(C#N)c(-c3cccs3)c2c1N [Compound 41, 3,6-diamino-4-(2-thienyl)thieno[2,3-b]pyridine-2,5-dicarbonitrile] | – | – | 2.3 µM | 0.18 µM
3 | N#Cc1c(N)nc2sc(C(=O)c3cccc(C(F)(F)F)c3)c(N)c2c1-c1ccccc1Cl [Compound 25, 3,6-diamino-4-(2-chlorophenyl)-2-[3-(trifluoromethyl)benzoyl]thieno[2,3-b]pyridine-5-carbonitrile] | do not demonstrate good | particularly good | – | –
4 | N#Cc1c(N)nc2sc3c(=S)[nH]cnc3c2c1-c1ccccc1Cl [Compound 47, 7-amino-9-(2-chlorophenyl)-4-thioxo-3,4-dihydropyrido[3',2':4,5]thieno[3,2-d]pyrimidine-8-carbonitrile] | – | – | 0.06 µM | 0.13 µM
5 | COc1cccc(C(=O)c2sc3nc(N)c(C#N)c(-c4ccccc4Cl)c3c2N)c1 [Compound 24, 3,6-diamino-4-(2-chlorophenyl)-2-(3-methoxybenzoyl)thieno[2,3-b]pyridine-5-carbonitrile] | do not demonstrate good | particularly good | – | –
6 | N#Cc1c(N)nc2sc(C(=O)c3ccc(Cl)c(Cl)c3)c(N)c2c1-c1ccccc1Cl [Compound 23, 3,6-diamino-4-(2-chlorophenyl)-2-(3,4-dichlorobenzoyl)thieno[2,3-b]pyridine-5-carbonitrile] | do not demonstrate good | particularly good | – | –
7 | Cc1ccccc1-c1c(C#N)c(N)nc2sc(C#N)c(N)c12 [Compound 40, 3,6-diamino-4-(2-methylphenyl)thieno[2,3-b]pyridine-2,5-dicarbonitrile] | – | – | 2 µM | 0.51 µM
8 | N#Cc1c(N)nc2sc(C(=O)c3cccc(Cl)c3)c(N)c2c1-c1c(Cl)cccc1Cl [Compound 30, 3,6-diamino-2-(3-chlorobenzoyl)-4-(2,6-dichlorophenyl)thieno[2,3-b]pyridine-5-carbonitrile] | do not demonstrate good | particularly good | – | –
9 | N#Cc1c(N)nc2sc(C(=O)c3ccccc3)c(N)c2c1-c1ccccc1Br [Compound 18, 3,6-diamino-2-benzoyl-4-(2-bromophenyl)thieno[2,3-b]pyridine-5-carbonitrile] | do not demonstrate good | particularly good | – | –
10 | N#Cc1c(N)nc2sc(C(=O)c3ccc(Cl)c(Cl)c3)c(N)c2c1-c1ccccc1Br [Compound 21, 3,6-diamino-4-(2-bromophenyl)-2-(3,4-dichlorobenzoyl)thieno[2,3-b]pyridine-5-carbonitrile] | do not demonstrate good | particularly good | > 10 µM | 3.8 µM
11 | N#Cc1c(N)nc2sc(C(=O)c3cccc(Br)c3)c(N)c2c1-c1ccccc1Cl [Compound 27, 3,6-diamino-2-(3-bromobenzoyl)-4-(2-chlorophenyl)thieno[2,3-b]pyridine-5-carbonitrile] | do not demonstrate good | particularly good | – | –
12 | Cc1ccc(C(=O)c2sc3nc(N)c(C#N)c(-c4ccccc4I)c3c2N)cc1 [Compound 12, 3,6-diamino-4-(2-iodophenyl)-2-(4-methylbenzoyl)thieno[2,3-b]pyridine-5-carbonitrile] | do not demonstrate good | particularly good | – | –
13 | COc1ccc(C(=O)c2sc3nc(N)c(C#N)c(-c4ccccc4I)c3c2N)cc1 [Compound 11, 3,6-diamino-4-(2-iodophenyl)-2-(4-methoxybenzoyl)thieno[2,3-b]pyridine-5-carbonitrile] | do not demonstrate good | particularly good | > 10 µM | 1.7 µM
